The target of data set [1] is T1, hERG (Homo sapiens, UniProt Q12809).
T1 construct: Ricerca (contract laboratory that ran the panel)
The data set can be described thus: Radioligand displacement (Ricerca). Type of data set: binding. (In general: Displacement assays read how much labelled ligand stays bound in the presence of the test substance.)

In data set [2] the target is T2, Opiate (MOP) (Homo sapiens, UniProt P35372).
T2 construct: Ricerca (contract laboratory that ran the panel)
Briefly: Radioligand displacement (Ricerca). Type of data set: binding.

For data set [3], the target named is T3, hERG (Kv11.1) (Homo sapiens, UniProt Q12809).
T3 construct: expressed in transfected cells; host or cells: T-REx-293
The data set can be described thus: Thallium flux assay, hERG-expressing cells. The class given is cell-based. The following applies: human, T-REx-293 cells expressing hERG (Kv11.1), pH 7.3, at 100 μM; 100% inhibition defined by maximally effective dofetilide; read-out: maximum inhibition of hERG. The text has this: (§1) Cell Line Construction and Cell Culture. HEK-293 cells co-expressing human GIRK1/2 and rat mGlu8 were generated as previously described (Niswender et al., 2008). A HEK-293 cell line (ATCC, Manassas, Va.) expressing human GIRK1 and human GIRK2 was constructed by transfecting HEK-293 cells with GIRK1 and GIRK2 (Origene, Rockville, Md.) cloned into the pBudCE4.1 vector (Life Technologies, Carlsbad, Calif.) using FuGene 6 (Promega, Madison, Wis.) transfection reagent. Unless otherwise noted, other ion channel-expressing cells were prepared by transfecting HEK-293 cells with individual or combinations of subunits: GIRK1, pCMV6-A-BSD; GIRK2, pCMV6-A-puro; GIRK3, pCMV6-A-hygro; GIRK4, pCMV6-A-AC; Kv7.4, pIRESneo3. The Kir2.1 and hERG-expressing cell lines were made by transfecting T-REx-293 cells (Life Technologies, Carlsbad, Calif.) with Kir2.1 and Kv11.1, respectively, cloned into pcDNA5TO. Monoclonal cell lines were produced by limiting-dilution cloning of antibiotic-resistant cells and functional selection using the thallium flux assay described below. Unless otherwise noted, cells were maintained in Minimal Essential Medium, Alpha Medium (Mediatech, Manassas, Va.) supplemented with 10% fetal bovine serum (Sigma-Aldrich, Saint Louis, Mo.) and GlutaGro (Mediatech, Manassas, Va.), referred to henceforth as cell culture medium. Cell culture medium was further supplemented with selection antibiotics, as appropriate.
(§2) For thallium flux assays, cells were dislodged from tissue culture flasks using TrypLE Express (Life Technologies, Carlsbad, Calif.), transferred to a 50 mL centrifuge tube, and spun at 500×g for 2 min. The supernatant solution was removed by aspiration and the pellet was resuspended at concentration of ˜1000 cells/μL. Twenty μL/well of the cell suspension was transferred to 384-well, amine-coated assay plates (cat#354719, BD, Franklin Lakes, N.J.) using an electronic multichannel pipette. Plated cells were incubated overnight in a humidified 5% CO2 cell culture incubator at 37° C. […]
In general terms: The hERG channel carries a current that helps repolarise heart muscle cells.

Data set [4] has as its target T4, hERG potassium channel (Homo sapiens, UniProt Q12809).
T4 construct: expressed in transfected cells; host or cells: T-REx-293
The data set can be described thus: Thallium flux assay, hERG-expressing cells. Type of data set: cell-based. The following applies: hERG inhibition, thallium flux.
From the text: as §1, §2

Data set [5] has as its system GABAA (flunitrazepam). Briefly: Radioligand displacement (Ricerca). The class given is binding, rat. The following applies: 10 μM.
The target in data set [6] is T5, Kv7.4 (Homo sapiens, UniProt P56696).
T5 construct: expressed in transfected cells; host or cells: HEK-293
The data set can be described thus: Thallium flux assay, Kv7.4-expressing cells. The class given is cell-based.
From the text: as §1, with “Cell culture medium was further supplemented with selection antibiotics, as appropriate.” left out

Data set [7] deals with Thyroid hormone. The data set can be described thus: Radioligand displacement (Ricerca). Type of data set: binding, human. The following applies: 10 μM.
Data set [8] has as its target T6, Serotonin 5-HT1A (Homo sapiens, UniProt P08908).
T6 construct: Ricerca (contract laboratory that ran the panel)
Briefly: Radioligand displacement (Ricerca). The class given is binding.

Data set [9] has as its target T7, Neuropeptide Y (Y1 ) (Homo sapiens, UniProt P25929).
T7 construct: Ricerca (contract laboratory that ran the panel)
Briefly: Radioligand displacement (Ricerca). Type of data set: binding.

For data set [10], the target named is T8, Transporter, NET (Homo sapiens, UniProt P23975).
T8 construct: Ricerca (contract panel)
The data set can be described thus: Radioligand displacement (Ricerca). Type of data set: binding.

Structures are written as SMILES. Like-named read-outs stand apart in the source and are kept apart here.

The values below come from patent US9067894B1, “Compound, composition, and method of activating GIRK potassium channel and use of same for treating conditions of interest” (Vanderbilt University, priority 2013, dated 2015).

What is called inhibition is the relative decrease from the control value, in per cent. As usually defined, the % Inhibition is the relative decrease from the control value, in per cent. A lower % Inhibition goes with a weak effect.

T4 sequence (Q12809 whole entry): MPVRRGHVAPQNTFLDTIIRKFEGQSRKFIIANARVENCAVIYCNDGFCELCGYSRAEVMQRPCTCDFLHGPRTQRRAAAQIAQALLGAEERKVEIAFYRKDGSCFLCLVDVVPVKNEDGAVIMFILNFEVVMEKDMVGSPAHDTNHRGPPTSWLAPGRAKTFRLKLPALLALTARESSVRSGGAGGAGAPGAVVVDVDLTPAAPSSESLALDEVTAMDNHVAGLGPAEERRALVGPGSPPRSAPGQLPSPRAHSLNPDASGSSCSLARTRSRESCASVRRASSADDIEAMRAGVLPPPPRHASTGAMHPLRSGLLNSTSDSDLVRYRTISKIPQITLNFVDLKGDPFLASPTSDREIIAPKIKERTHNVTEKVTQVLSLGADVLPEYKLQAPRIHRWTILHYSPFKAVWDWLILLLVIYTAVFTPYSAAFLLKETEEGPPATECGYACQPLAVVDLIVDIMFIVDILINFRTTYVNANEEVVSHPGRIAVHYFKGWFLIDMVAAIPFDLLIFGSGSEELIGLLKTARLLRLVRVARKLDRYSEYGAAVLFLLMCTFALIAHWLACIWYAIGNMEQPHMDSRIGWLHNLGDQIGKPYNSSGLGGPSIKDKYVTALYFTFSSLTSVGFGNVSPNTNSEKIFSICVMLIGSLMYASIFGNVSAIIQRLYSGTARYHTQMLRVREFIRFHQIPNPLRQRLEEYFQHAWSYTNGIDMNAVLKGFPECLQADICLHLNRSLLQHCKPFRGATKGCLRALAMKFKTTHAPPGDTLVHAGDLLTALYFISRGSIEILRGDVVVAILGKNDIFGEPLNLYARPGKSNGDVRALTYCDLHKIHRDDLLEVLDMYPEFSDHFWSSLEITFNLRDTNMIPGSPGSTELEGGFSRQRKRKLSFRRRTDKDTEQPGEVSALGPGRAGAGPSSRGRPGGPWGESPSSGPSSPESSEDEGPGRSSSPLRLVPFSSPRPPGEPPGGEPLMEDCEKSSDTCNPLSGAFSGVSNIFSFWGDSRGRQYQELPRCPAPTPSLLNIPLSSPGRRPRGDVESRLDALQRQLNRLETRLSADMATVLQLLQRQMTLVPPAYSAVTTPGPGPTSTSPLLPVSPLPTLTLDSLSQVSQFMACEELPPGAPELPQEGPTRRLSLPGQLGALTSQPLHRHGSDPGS
T8 sequence (P23975 whole entry): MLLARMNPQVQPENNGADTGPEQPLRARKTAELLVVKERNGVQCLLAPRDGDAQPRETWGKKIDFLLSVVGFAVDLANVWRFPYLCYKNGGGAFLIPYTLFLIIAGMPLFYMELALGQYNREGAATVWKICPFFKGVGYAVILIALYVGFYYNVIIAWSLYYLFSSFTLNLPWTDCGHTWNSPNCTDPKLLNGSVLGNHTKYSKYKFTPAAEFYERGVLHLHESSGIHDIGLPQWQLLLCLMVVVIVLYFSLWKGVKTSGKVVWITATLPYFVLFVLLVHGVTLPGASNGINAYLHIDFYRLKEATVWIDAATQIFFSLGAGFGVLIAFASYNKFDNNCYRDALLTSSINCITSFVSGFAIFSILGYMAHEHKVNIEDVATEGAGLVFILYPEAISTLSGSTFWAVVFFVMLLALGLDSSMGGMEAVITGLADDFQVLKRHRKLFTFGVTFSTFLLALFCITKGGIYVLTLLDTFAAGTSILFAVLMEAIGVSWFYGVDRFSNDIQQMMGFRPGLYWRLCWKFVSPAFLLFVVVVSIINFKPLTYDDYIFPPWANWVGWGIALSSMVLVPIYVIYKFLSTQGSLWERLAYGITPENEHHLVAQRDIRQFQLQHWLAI
T7 sequence (P25929 whole entry): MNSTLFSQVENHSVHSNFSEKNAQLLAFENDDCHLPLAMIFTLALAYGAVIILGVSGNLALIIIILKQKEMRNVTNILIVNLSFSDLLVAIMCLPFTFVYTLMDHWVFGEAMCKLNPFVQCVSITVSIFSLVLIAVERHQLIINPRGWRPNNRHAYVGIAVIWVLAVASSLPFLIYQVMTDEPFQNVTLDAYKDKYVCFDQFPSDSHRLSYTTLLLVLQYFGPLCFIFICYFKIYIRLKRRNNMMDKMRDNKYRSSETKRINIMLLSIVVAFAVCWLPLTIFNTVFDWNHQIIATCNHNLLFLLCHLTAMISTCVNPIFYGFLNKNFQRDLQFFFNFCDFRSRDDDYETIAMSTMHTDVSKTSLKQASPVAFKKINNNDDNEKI
T1 sequence (Q12809 whole entry): as the sequence (Q12809 whole entry) above
T3 sequence (Q12809 whole entry): as above
T2 sequence (P35372 whole entry): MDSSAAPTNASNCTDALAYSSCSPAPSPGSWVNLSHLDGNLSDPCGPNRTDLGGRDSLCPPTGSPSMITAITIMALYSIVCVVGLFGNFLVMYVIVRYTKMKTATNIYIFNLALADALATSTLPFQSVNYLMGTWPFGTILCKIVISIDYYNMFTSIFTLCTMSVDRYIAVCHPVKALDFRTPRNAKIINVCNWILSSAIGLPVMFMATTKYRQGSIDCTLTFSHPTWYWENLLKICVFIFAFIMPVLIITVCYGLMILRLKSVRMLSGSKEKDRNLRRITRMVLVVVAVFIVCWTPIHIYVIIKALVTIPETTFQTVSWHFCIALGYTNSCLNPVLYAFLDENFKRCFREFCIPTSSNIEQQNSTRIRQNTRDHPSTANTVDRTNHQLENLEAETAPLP

With `Cc1cc(NC(=O)Nc2ccc(F)c(F)c2)n(-c2ccccc2)n1` [VU0456810, 1-(3,4-difluorophenyl)-3-(3-methyl-1-phenyl-1H-pyrazol-5-yl)urea], the inhibition at 10 µM in [1] was 10%; in [2] it was 21%; in [8], 0%; in [9], 24%; in [10] it was 15%. Also, the inhibition at 20 min, 100 µM in [3] was around 60%. For the same compound, the IC50 was around 10 µM in [4] (read-out: IC50) and 10.1 ± 7 µM in data set [4] (average ± SEM, read-out: Potency). In addition, the “% Inhibition” value in data set [5] worked out at 24%; in [7], 8%. In addition, the Potency result in data set [6] is reported as “Inactive”.
